Columns and labels:
[1] = system: RNA3WJ_1.0.0_5IB_3FAM (cis 3WJ with one unpaired nucleotide); test: Fluorescence quenching binding assay (FAM / Iowa Black); details: two concentration points
Description: (§1) This assay will be used to test binding of compounds for RNA three way junction (such as a 38 nt construct). This is a fluorescence quenching assay utilizing FAM as fluorescence tag and Iowa Black as quencher. Tags are attached at the 3′ and 5′ end, respectively. Stable formation of MW upon compound binding would lead to quenching of the FAM fluorescence due to close proximity of the Iowa Black tag. Assay readout: FAM (485-520 nm) Fluorescence Intensity.
(§2) Assay sample buffer used: 10 mM CacoK pH 7.2, 30 mM NaCl. Buffer preparation in Dnase/Rnase Free distilled water (Gibco Life Technologies).
(§3) Dilute the RNA 1:10 (final 10 μM) in Assay Buffer.
(§4) Heat up the diluted RNA up to 90° C. for 5 min (sealed Eppendorf Tube).
(§5) Cool down the RNA probe slowly to RT.
(§6) Dilute the compounds to 800 μM in DMSO (Assay: 8 μM).
(§7) Final concentrations in the sample: 1-10 μM RNA, 8 μM compound, 1% DMSO
(§8) Pipet 25 μL Sample Solution into Greiner cat #784076, black, 384
(§9) Measure the 96 plate with the LightCycler480 (Channel: 485/520 nm).
(§10) The fluorescence quenching experiment was repeated for compounds Ark0000013 and Ark0000014 to measure binding with:
A) RNA3WJ_1.0.0_5IB_3FAM (cis 3WJ with one unpaired nucleotide)
(§11) Both cmpds were tested at two concentration points in the fluorescence quenching assays to assess effect upon RNA constructs utilized in the study. […]

[2] = system: Split3WJ.1_up_5IB+Split3WJ.1_down_3FAM (trans 3WJ as 1:1 mix); test: as above; details: two concentration points
Description: as §1, §2, §3, §4, §5, §6, §7, §8, §9, §10
B) Split3WJ.1_up_5IB+Split3WJ.1_down_3FAM (trans 3WJ as 1:1 mix)
as §11

[3] = system: Split3WJ.2 up_5IB+Split3WJ.2_down_3FAM (trans 3WJ as 1:1 mix); test: as above; details: two concentration points
Description: as §1, §2, §3, §4, §5, §6, §7, §8, §9, §10
C) Split3WJ.2 up_5IB+Split3WJ.2_down_3FAM (trans 3WJ as 1:1 mix)
as §11

[4] = system: RNA3WJ_0.0.0_5IB_3FAM (3WJ_0.0.0_5IB_3FAM RNA construct); test: Thermal shift binding assay
From the text: (§12) Purpose: Test binding of compounds for RNA three way junction (for example, a construct of 38 nt). Thermal shift assay based on established fluorescence quenching assay utilizing FAM as fluorescence tag and Iowa Black as quencher. Tags were attached at the 3′ and 5′ end, respectively. Stable formation of 3WJ upon compound binding would lead to quenching of the FAM fluorescence due to close proximity of the Iowa Black tag. Thermal unfolding leads to increase of fluorescence emission. Assay readout: FAM (465-510 nm) Thermal Shift.
as §2, §3, §4, §5
(§13) Dilute the compounds to 800 μM in DMSO (Assay: 8 μM). […]
(§14) Pipet 20 μL Sample Solution into Roche, Light Cycler480 Multiwell Plate96, white, REF 04729692001.
(§15) Measure the 96 plate with the LightCycler480 (Channel: 480/510 nm; Temperature: 41-91° C.).
(§16) Analyse measurement-data with the MeltingCurveGenotyping Mode.
(§17) Settings: Acquisition mode: continuous; Ramp rate: 0.1° C./sec; Acquisition: 6° C.
(§18) Curves are fitted with raw and normalized data.
(§19) Melting curves analysis show melting temperature (Tm) of ˜51° C. Range of RNA concentrations was tested and assay window was determined (conc. range of 0.5-1 μM yields best results). The choice of buffer also affected the Tm. RNA constructs were tested under different buffer conditions (especially in presence of salt) in the thermal shift assay. […] CacoK with 30 mM salt at 1 μM RNA conc. was used to assess compound effects on 3WJ stability. […] These conditions were used for screening test compounds.

RNA3WJ_3.0.0_5IB_3FAM = test: Thermal shift binding assay; details: 1 μM RNA, 8 μM compound, 10 mM CacoK pH 7.2, 30 mM NaCl
From the text: as §12, §2, §3, §4, §5, §13, §14, §15, §16, §17, §18, §19

[5] = system: RNA3WJ_1.0.0_5IB_3FAM (cis 3WJ with one unpaired nucleotide); test: Thermal shift binding assay; details: 1 μM RNA, 8 μM compound, 10 mM CacoK pH 7.2, 30 mM NaCl
From the text: as §12, §2, §3, §4, §5, §6
(§20) Final concentrations in the sample: 1 μM RNA, 8 μM compound, 1% DMSO
as §14, §15, §16, §17, §18, §19
(§21) Compounds Ark0000013 and Ark0000014 were also tested in the thermal shift assay against three RNA 3WJ constructs, A) RNA3WJ_1.0.0_5IB_3FAM (cis 3WJ with one unpaired nucleotide); B) Split3WJ.1_up_5IB+Split3WJ.1_down_3FAM (trans 3WJ as 1:1 mix); and C) Split3WJ.2_up_5IB+Split3WJ.2_down_3FAM (trans 3WJ as 1:1 mix).

[6] = system: Split3WJ.1_up_5IB+Split3WJ.1_down_3FAM (trans 3WJ as 1:1 mix; Split3WJ_1); test: Thermal shift binding assay; details: 1 μM RNA, 8 μM compound, 10 mM CacoK pH 7.2, 30 mM NaCl
From the text: as §12, §2, §3, §4, §5, §6, §20, §14, §15, §16, §17, §18, §19, §21

[7] = system: Split3WJ.2_up_5IB+Split3WJ.2_down_3FAM (trans 3WJ as 1:1 mix; Split3WJ_2); test: Thermal shift binding assay; details: 1 μM RNA, 8 μM compound, 10 mM CacoK pH 7.2, 30 mM NaCl
From the text: as §12, §2, §3, §4, §5, §6, §20, §14, §15, §16, §17, §18, §19, §21

RNA3WJ_1.1.0_5IB_3FAM = test: Thermal shift binding assay; details: 1 μM RNA, 8 μM compound, 10 mM CacoK pH 7.2, 30 mM NaCl
From the text: as §12, §2, §3, §4, §5, §6, §20, §14, §15, §16, §17, §18, §19

RNA3WJ_1.1.1_5IB_3FAM = test: Thermal shift binding assay; details: 1 μM RNA, 8 μM compound, 10 mM CacoK pH 7.2, 30 mM NaCl
From the text: as §12, §2, §3, §4, §5, §6, §20, §14, §15, §16, §17, §18, §19

RNA3WJ_2.0.0_5IB_3FAM = test: Thermal shift binding assay; details: 1 μM RNA, 8 μM compound, 10 mM CacoK pH 7.2, 30 mM NaCl
From the text: as §12, §2, §3, §4, §5, §6, §20, §14, §15, §16, §17, §18, §19

RNA3WJ_2.1.0_5IB_3FAM = test: Thermal shift binding assay; details: 1 μM RNA, 8 μM compound, 10 mM CacoK pH 7.2, 30 mM NaCl
From the text: as §12, §2, §3, §4, §5, §6, §20, §14, §15, §16, §17, §18, §19

[8] = 1 μM RNA, 8 μM compound, 10 mM CacoK pH 7.2, 30 mM NaCl

fluorescence quenching effect (FAM fluorescence signal) [1]: smaller effect | fluorescence quenching effect (FAM fluorescence signal) [2]: smaller effect | fluorescence quenching effect (FAM fluorescence signal) [3]: Split3WJ_2 shows larger effect | Melting temp + cmpd [4, 8]: 61.5 °C | Temp. Shift [4, 8]: 1.6 °C | Melt. Temp. with cmpd ([4]; RNA sequence 3WJ_0.0.0_5IB_FAM, melting temperature in presence of compound): 61.5 °C | Shift melt. Temp. ([4]; RNA sequence 3WJ_0.0.0_5IB_FAM, with cmpd minus without cmpd): +1.6 °C | Melting temp + cmpd (RNA3WJ_3.0.0_5IB_3FAM): 63.9 °C | Temp. Shift (RNA3WJ_3.0.0_5IB_3FAM): 1.9 °C | Melting temp + cmpd [5]: 68.4 °C | Temp. Shift [5]: ~3 °C | Melting temp + cmpd ([5]; listed as Ark0000014): 68.1 °C | Temp. Shift ([5]; listed as Ark0000014): 2.5 °C | Melting temp + cmpd [6]: 38.8 °C | Temp. Shift [6]: ~1 °C | Melting temp + cmpd ([6]; listed as Ark0000014): 37.8 °C | Temp. Shift ([6]; listed as Ark0000014): 0.3 °C | Melting temp + cmpd [7]: 44.7 °C | Temp. Shift [7]: ~1 °C | Melting temp + cmpd ([7]; listed as Ark0000014): 44.0 °C | Temp. Shift ([7]; listed as Ark0000014): −0.3 °C | Melting temp + cmpd (RNA3WJ_1.1.0_5IB_3FAM): 65.1 °C | Temp. Shift (RNA3WJ_1.1.0_5IB_3FAM): 1.8 °C | Melting temp + cmpd (RNA3WJ_1.1.1_5IB_3FAM): 64.3 °C | Temp. Shift (RNA3WJ_1.1.1_5IB_3FAM): 2.1 °C | Melting temp + cmpd (RNA3WJ_2.0.0_5IB_3FAM): 64.4 °C | Temp. Shift (RNA3WJ_2.0.0_5IB_3FAM): 2.2 °C | Melting temp + cmpd (RNA3WJ_2.1.0_5IB_3FAM): 42.0 °C | Temp. Shift (RNA3WJ_2.1.0_5IB_3FAM): 0.1 °C
SMILES: NCCCCCCCNC(=O)c1ccc2c(c1)C1c3cc(C(=O)NCCCCCCCN)ccc3C2c2ccc(C(=O)NCCCCCCCN)cc21 [Ark000014, N^2,N^7,N^15-tris(7-aminoheptyl)-9,10-dihydro-9,10-[1,2]benzenoanthracene-2,7,15-tricarboxamide]

From patent US20220402883A1, “COMPOUNDS AND METHODS FOR MODULATING RNA FUNCTION” (Arrakis Therapeutics, Inc., priority 2016, published 2022)
